Source: patent US11203633B2, “Polynucleotides encoding antibodies or antigen binding fragments thereof that bind pseudomonas perv” (priority 2011, dated 2021)

Legend:
[1] = test system: wild type PAO1, PAO1ΔpslA and PAO1ΔpslA complemented with pslA; assay: OPK assay with PAO1 pslA mutant strains; type: cell-based, Pseudomonas aeruginosa; details: FIG. 3F-G
Description: This example describes the evaluation of prioritized human IgG1 antibodies to promote OPK of P. aeruginosa. […] OPK assays were performed as described in (DiGiandomenico, A., et al., Infect Immun 72, 7012-7021 (2004)), with modifications. Briefly, assays were performed in 96-well plates using 0.025 ml of each OPK component; P. aeruginosa strains; diluted baby rabbit serum; differentiated HL-60 cells; and monoclonal antibody. In some OPK assays, luminescent P. aeruginosa strains, which were constructed as described (Choi, K. H., et al., Nat Methods 2, 443-448 (2005)), were used. Luminescent OPK assays were performed as described above but with determination of relative luciferase units (RLUs) using a Perkin Elmer ENVISION Multilabel plate reader (Perkin Elmer).
This example describes identification of the target of anti-P. aeruginosa antibodies derived from phenotypic screening. Target analysis was performed to test whether the serotype independent antibodies targeted protein or carbohydrate antigens. […] Isogenic mutants were constructed in genes responsible for 0-antigen, alginate, and LPS core biosynthesis; wbpL (O-antigen-deficient); wbpL/algD (O-antigen and alginate deficient); rmlC (O-antigen-deficient and truncated outer core); and galU (O-antigen-deficient and truncated inner core). […]

[2] = test system: Psl exopolysaccharide (P. aeruginosa PAO1 and isogenic mutants); assay: Indirect ELISA / FACS binding to PAO1 and isogenic mutants; set-up: species or system Pseudomonas aeruginosa; details: for binding (indirect ELISA): FIG. 3A; for binding (ELISA): FIG. 3E
Text: In addition, duplication of VH CDR3 loop sequences in the libraries (a measure of clonal enrichment during selection), was also found to be higher in the patient library, reaching 88-92%, compared to 15-25% in the naïve library at round 3 (FIG. 1D). Individual scFv phage from affinity selections were next screened by ELISA for reactivity to P. aeruginosa heterologous serotype strains (FIG. 1E). ELISA plates (Nunc; MAXISORP™) were coated with P. aeruginosa strains from overnight cultures as described (DiGiandomenico, A., et al., Infect Immun 72, 7012-7021 (2004)). Diluted antibodies were added to blocked plates for 1 hour, washed, and treated with HRP-conjugated anti-human secondary antibodies for 1 hour followed by development and analysis as described (Ulbrandt, N. D., et al., J Virol 80, 7799-7806 (2006)). The dominant species of phage obtained from whole cell selections with both libraries yielded serotype specific reactivity (data not shown).
For IgG expression, the VH and VL chains of selected antibodies were cloned into human IgG1 expression vectors, co-expressed in HEK293 cells, and purified by protein A affinity chromatography as described (Persic, L., et al., Gene 187, 9-18 (1997)). Human IgG1 antibodies made with the variable regions from these selected serotype independent phage were confirmed for P. aeruginosa specificity and prioritized for subsequent analysis by whole cell binding to dominant clinically relevant serotypes by FACS analysis (FIG. 1F), since this method is more stringent than ELISA. For the flow cytometry based binding assays mid-log phase P. aeruginosa strains were concentrated in PBS to an OD650 of 2.0. After incubation of antibody (10 μg/mL) and bacteria (˜1×10^7 cells) for 1 hr at 4° C. with shaking, washed cells were incubated with an ALEXA FLUOR 647® goat anti-human IgG antibody (Invitrogen, Carlsbad, Calif.) for 0.5 hr at 4° C. Washed cells were stained with BACLIGHT™ green bacterial stain as recommended (Invitrogen, Carlsbad, Calif.). Samples were run on a LSR II flow cytometer (BD Biosciences) and analyzed using BD FacsDiva (v. 6.1.3) and FlowJo (v. 9.2; TreeStar).
This example describes identification of the target of anti-P. aeruginosa antibodies derived from phenotypic screening. Target analysis was performed to test whether the serotype independent antibodies targeted protein or carbohydrate antigens. […] Isogenic mutants were constructed in genes responsible for 0-antigen, alginate, and LPS core biosynthesis; wbpL (O-antigen-deficient); wbpL/algD (O-antigen and alginate deficient); rmlC (O-antigen-deficient and truncated outer core); and galU (O-antigen-deficient and truncated inner core). P. aeruginosa mutants were constructed based on the allele replacement strategy described by Schweizer (Schweizer, H. P., Mol Microbiol 6, 1195-1204 (1992); Schweizer, H. D., Biotechniques 15, 831-834 (1993)). Vectors were mobilized from E. coli strain 517.1 into P. aeruginosa strain PAO1; recombinants were isolated as described (Hoang, T. T., et al., Gene 212, 77-86 (1998)). Gene deletion was confirmed by PCR. P. aeruginosa mutants were complemented with pUCP30T-based constructs harboring wild type genes. […] The rmlC and galU genes were recently shown to be required for biosynthesis of the Psl exopolysaccharide, a repeating pentasaccharide polymer consisting of D-mannose, L-rhamnose, and D-glucose. Cam-003 binding to an isogenic pslA knockout PAO1ΔpslA, was tested, as pslA is required for Psl biosynthesis (Byrd, M. S., et al., Mol Microbiol 73, 622-638 (2009)). Binding of Cam-003 to PAO1ΔpslA was abolished when tested by ELISA (FIG. 3B) and FACS (FIG. 3C), while the LPS molecule in this mutant was unaffected (FIG. 3D). Binding of Cam-003 was restored in a PAO1ΔwbpL/algD/pslA triple mutant complemented with pslA (FIG. 3E) as was the ability of Cam-003 to mediate opsonic killing to complemented PAO1ΔpslA in contrast to the mutant (FIGS. 3F and 3G). […]

Question: With “Cam-003: anti-Psl human IgG1 monoclonal antibody; VH SEQ ID NO:1, VL SEQ ID NO:2” as the substance, how does the “opsonophagocytic killing of Psl-producing vs Psl-deficient strains” value [1] read?
Answer: only mediates killing of strains capable of producing Psl

Question: What about the “reactivity to LPS purified from PAO1” value [2] of the same substance?
Answer: not observed

Question: And the “binding (indirect ELISA)” value ([2]; PAO1 rmlC and galU mutants)?
Answer: abolished

Question: What about the “binding (indirect ELISA)” value ([2]; PAO1 wbpL or wbpL/algD double mutant) of the same substance?
Answer: unaffected

Question: And the “binding (ELISA and FACS)” value ([2]; PAO1ΔpslA, FIG. 3B-C)?
Answer: abolished

Question: What about the “binding (ELISA)” value ([2]; PAO1ΔwbpL/algD/pslA triple mutant complemented with pslA) of the same substance?
Answer: restored

Question: And the “binding (ELISA)” value ([2]; Pel exopolysaccharide mutant)?
Answer: unaffected
